In brackets after ≈: the same amount, converted by molar mass. Several values for one entry are separate records, joined by “and”; a condition that tells them apart may be missing. Equal entries are not always repeated.
How the values were obtained:
Assay in all cases: ≥ marks a high value that may be exact or a test limit, other limits are often not marked, values filed in µg/mL are converted to µM
[1] = system: Escherichia coli ATCC 25922
[2] = system: Acinetobacter baumannii ATCC 19606
[3] = system: Cryptococcus neoformans ATCC 208821
[4] = system: Klebsiella pneumoniae ATCC 700603
[5] = system: Staphylococcus aureus ATCC 43300
[6] = system: Candida albicans ATCC 90028
[7] = system: Pseudomonas aeruginosa ATCC 27853
[8] = system: Erwinia amylovora PMV 6076
[9] = system: Pseudomonas syringae pv. syringae EPS 94
[10] = system: Staphylococcus aureus ATCC BAA-1556
[11] = system: Listeria monocytogenes LO28
[12] = system: Cronobacter sakazakii DPC 6440
[13] = system: Aeromonas hydrophila
[14] = system: Vibrio harveyi
[15] = system: Escherichia coli MG1655

Work on `C[C@H](NC(=O)[C@@H](NC(=O)[C@H](CCCN=C(N)N)NC(=O)[C@H](CO)NC(=O)CNC(=O)[C@H](CCCN=C(N)N)NC(=O)[C@H](CCC(N)=O)NC(=O)[C@@H](NC(=O)[C@H](CO)NC(=O)[C@H](CCC(N)=O)NC(=O)CNC(=O)[C@H](Cc1cnc[nH]1)NC(=O)CNC(=O)[C@H](CO)NC(=O)[C@H](Cc1cnc[nH]1)NC(=O)[C@H](C)NC(=O)[C@@H](N)Cc1cnc[nH]1)[C@@H](C)O)[C@@H](C)O)C(=O)NCC(=O)N[C@@H](CCCN=C(N)N)C(=O)O` [HAHSGHGQSTQRGSRTAGR] yielded an MIC [1] greater than 16.1 µM, an MIC [2] greater than 16.1 µM and an MIC [3] of 16.1 µM (≈ 32 µg/mL). It also gave an MIC [4] greater than 16.1 µM, an MIC [5] greater than 16.1 µM and an MIC [6] of 16.1 µM (≈ 32 µg/mL). It also gave an MIC [7] greater than 16.1 µM.
`CC[C@H](C)[C@H](NC(=O)[C@H](CCCCN)NC(=O)[C@H](CCCCN)NC(=O)[C@H](Cc1ccccc1)NC(=O)[C@H](CC(C)C)NC(=O)[C@H](CCCCN)NC(=O)[C@H](CCCCN)NC(=O)CN)C(=O)N[C@@H](CC(C)C)C(=O)N[C@@H](CCCCN)C(=O)N[C@@H](Cc1ccc(O)cc1)C(=O)N[C@@H](CC(C)C)C(=O)N[C@@H](C)C(=O)NCC(=O)N1CCC[C@H]1C(=O)N[C@@H](C)C(=O)N[C@@H](CCCCN)C(=O)N[C@@H](Cc1ccccc1)C(=O)N[C@@H](CC(C)C)C(=O)N[C@@H](Cc1cnc[nH]1)C(=O)N[C@@H](CO)C(=O)N[C@@H](C)C(=O)N[C@@H](CCCCN)C(=O)O` [GKKLFKKILKYLAGPAKFLHSAK] showed an MIC [8] of 1.77 µM (≈ 4.57 µg/mL) and an MIC [9] of 3.54 µM (≈ 9.15 µg/mL).
With `CC(C)C[C@H](NC(=O)[C@H](Cc1c[nH]c2ccccc12)NC(=O)[C@H](Cc1c[nH]c2ccccc12)NC(=O)[C@H](CC(C)C)NC(=O)[C@H](Cc1c[nH]c2ccccc12)NC(=O)[C@H](Cc1c[nH]c2ccccc12)NC(=O)[C@H](CC(C)C)NC(=O)[C@H](CCCN=C(N)N)NC(=O)[C@@H](N)Cc1c[nH]c2ccccc12)C(N)=O` [WRLWWLWWL] the MIC [10] was 6.25 µM (≈ 9.02 µg/mL).
Compound `CC[C@H](C)[C@H](NC(=O)[C@@H](NC(=O)[C@H](CCCCN)NC(=O)[C@@H](N)[C@@H](C)O)C(C)C)C(=O)N1CCC[C@H]1C(=O)N[C@@H](Cc1ccc(O)cc1)C(=O)N[C@H](C(=O)N[C@@H](CCCN=C(N)N)C(=O)N[C@@H](Cc1ccc(O)cc1)C(=O)N[C@@H](CC(C)C)C(=O)O)C(C)C` [TKVIPYVRYL] has an MIC [11] of no less than 78.1 µM and an MIC [12] of no less than 156 µM.
`CC[C@H](C)[C@H](NC(=O)[C@H](C)NC(=O)[C@H](CCCN=C(N)N)NC(=O)[C@H](Cc1cnc[nH]1)NC(=O)[C@@H](NC(=O)[C@H](C)NC(=O)[C@H](CCCN=C(N)N)NC(=O)[C@@H](NC(=O)CNC(=O)[C@H](Cc1cnc[nH]1)NC(=O)[C@H](CO)NC(=O)[C@@H](NC(=O)[C@H](Cc1c[nH]c2ccccc12)NC(=O)CNC(=O)[C@@H](NC(=O)[C@@H](NC(=O)[C@H](Cc1cnc[nH]1)NC(=O)[C@H](Cc1cnc[nH]1)NC(=O)[C@@H](NC(=O)[C@@H](N)Cc1ccccc1)[C@@H](C)CC)[C@@H](C)CC)[C@@H](C)CC)[C@@H](C)CC)C(C)C)[C@@H](C)CC)C(=O)N[C@@H](C)C(N)=O` [FIHHIIGWISHGVRAIHRAIA] gave an MIC [13] of 16 µM (≈ 38.5 µg/mL) and an MIC [14] of 16 µM (≈ 38.5 µg/mL).
In the case of `CC(C)C[C@H](NC(=O)[C@H](CC(C)C)NC(=O)[C@H](Cc1c[nH]c2ccccc12)NC(=O)[C@H](CCCCN)NC(=O)[C@H](CC(C)C)NC(=O)[C@H](CC(C)C)NC(=O)[C@H](CCCCN)NC(=O)[C@@H](N)CCCCN)C(N)=O` [KKLLKWLL], the MIC [10] is reported as no less than 100 µM.
With `CC[C@H](C)[C@H](NC(=O)[C@H](C)NC(=O)[C@H](CCCN=C(N)N)NC(=O)[C@H](Cc1cnc[nH]1)NC(=O)[C@@H](NC(=O)[C@H](C)NC(=O)[C@H](CCCN=C(N)N)NC(=O)[C@@H](NC(=O)CNC(=O)[C@H](C)NC(=O)[C@H](CO)NC(=O)[C@@H](NC(=O)[C@H](Cc1c[nH]c2ccccc12)NC(=O)CNC(=O)[C@@H](NC(=O)[C@@H](NC(=O)[C@H](Cc1cnc[nH]1)NC(=O)[C@H](Cc1cnc[nH]1)NC(=O)[C@@H](NC(=O)[C@@H](N)Cc1ccccc1)[C@@H](C)CC)[C@@H](C)CC)[C@@H](C)CC)[C@@H](C)CC)C(C)C)[C@@H](C)CC)C(=O)N[C@@H](Cc1cnc[nH]1)C(N)=O` [FIHHIIGWISAGVRAIHRAIH] the MIC [15] was 8 µM and 16 µM, the MIC [13] was no less than 128 µM and the MIC [14] was no less than 64 µM.
Compound `CC(C)C[C@H](NC(=O)CNC(=O)[C@H](CO)NC(=O)CNC(=O)[C@H](CCCN=C(N)N)NC(=O)[C@H](CCCN=C(N)N)NC(=O)CN)C(=O)NCC(=O)N[C@@H](CCCN=C(N)N)C(=O)N[C@@H](CO)C(=O)N[C@@H](CO)C(=O)N[C@@H](CO)C(=O)N[C@@H](CCCN=C(N)N)C(=O)NCC(=O)N[C@@H](CCC(N)=O)C(=O)N[C@@H](CCCN=C(N)N)C(=O)NCC(=O)N[C@@H](CO)C(=O)NCC(=O)N[C@@H](CO)C(=O)NCC(=O)N[C@@H](CCCN=C(N)N)C(=O)O` [GRRGSGLGRSSSRGQRGSGSGR] has an MIC [1] greater than 14.7 µM, an MIC [2] greater than 14.7 µM and an MIC [3] of 14.7 µM (≈ 32 µg/mL). It also gave an MIC [4] greater than 14.7 µM, an MIC [5] greater than 14.7 µM and an MIC [6] of 14.7 µM (≈ 32 µg/mL). The MIC [7] was greater than 14.7 µM.
Compound `CC[C@H](C)[C@H](NC(=O)[C@@H](N)Cc1c[nH]c2ccccc12)C(=O)N[C@@H](CCC(N)=O)C(=O)N1CCC[C@H]1C(=O)N[C@@H](CCCCN)C(=O)N[C@H](C(=O)N[C@@H](C)C(=O)N[C@H](C(=O)N[C@H](C(=O)N1CCC[C@H]1C(=O)N[C@@H](Cc1ccc(O)cc1)C(=O)N[C@H](C(=O)N[C@@H](CCCN=C(N)N)C(=O)N[C@@H](Cc1ccc(O)cc1)C(=O)N[C@@H](CC(C)C)C(=O)O)C(C)C)[C@@H](C)CC)C(C)C)[C@@H](C)O` [WIQPKTAVIPYVRYL] has an MIC [11] of no less than 39.1 µM and an MIC [12] of no less than 312 µM.
For `CC[C@H](C)[C@H](NC(=O)[C@H](C)NC(=O)[C@H](CCCN=C(N)N)NC(=O)[C@@H](NC(=O)CNC(=O)[C@H](Cc1cnc[nH]1)NC(=O)[C@H](CO)NC(=O)[C@@H](NC(=O)[C@H](Cc1c[nH]c2ccccc12)NC(=O)CNC(=O)[C@@H](NC(=O)[C@@H](NC(=O)[C@H](Cc1cnc[nH]1)NC(=O)[C@H](Cc1cnc[nH]1)NC(=O)[C@@H](NC(=O)[C@@H](N)Cc1ccccc1)[C@@H](C)CC)[C@@H](C)CC)[C@@H](C)CC)[C@@H](C)CC)C(C)C)C(=O)N[C@@H](C)C(=O)N[C@@H](CCCN=C(N)N)C(=O)N[C@@H](C)C(=O)N[C@H](C(=O)N[C@@H](Cc1cnc[nH]1)C(N)=O)[C@@H](C)CC` [FIHHIIGWISHGVRAIARAIH], the MIC [15] was 8 µM and 16 µM, the MIC [13] was no less than 128 µM and the MIC [14] was 16 µM (≈ 38.5 µg/mL).
`CC[C@H](C)[C@H](NC(=O)[C@@H](N)Cc1c[nH]c2ccccc12)C(=O)N[C@@H](CCCN=C(N)N)C(=O)N[C@@H](Cc1c[nH]c2ccccc12)C(=O)N[C@@H](CC(C)C)C(N)=O` [WIRWL] was tested, and the MIC [10] was no less than 100 µM.
`CC[C@H](C)[C@H](NC(=O)[C@@H](N)Cc1c[nH]c2ccccc12)C(=O)N[C@@H](CCC(N)=O)C(=O)N1CCC[C@H]1C(=O)N[C@@H](C)C(=O)N[C@H](C(=O)N[C@@H](C)C(=O)N[C@H](C(=O)N[C@H](C(=O)N1CCC[C@H]1C(=O)N[C@@H](Cc1ccc(O)cc1)C(=O)N[C@H](C(=O)N[C@@H](CCCN=C(N)N)C(=O)N[C@@H](Cc1ccc(O)cc1)C(=O)N[C@@H](CC(C)C)C(=O)O)C(C)C)[C@@H](C)CC)C(C)C)[C@@H](C)O` [WIQPATAVIPYVRYL] gave an MIC [11] of no less than 156 µM and an MIC [12] of no less than 625 µM.
`CC[C@H](C)[C@H](NC(=O)[C@H](Cc1c[nH]c2ccccc12)NC(=O)[C@H](CCCN=C(N)N)NC(=O)[C@H](CCCN=C(N)N)NC(=O)[C@@H](N)Cc1c[nH]c2ccccc12)C(=O)N[C@@H](CCCN=C(N)N)C(=O)N[C@@H](Cc1c[nH]c2ccccc12)C(=O)N[C@@H](CC(C)C)C(N)=O` [WRRWIRWL] gave an MIC [10] of 25 µM (≈ 31.8 µg/mL).
`CC[C@H](C)[C@H](NC(=O)[C@@H](N)Cc1c[nH]c2ccccc12)C(=O)N[C@@H](CCC(N)=O)C(=O)N1CCC[C@H]1C(=O)N[C@@H](CCCCN)C(=O)N[C@H](C(=O)N[C@@H](CCCCN)C(=O)N[C@H](C(=O)N[C@H](C(=O)N1CCC[C@H]1C(=O)N[C@@H](Cc1ccc(O)cc1)C(=O)N[C@H](C(=O)N[C@@H](CCCN=C(N)N)C(=O)N[C@@H](C)C(=O)N[C@@H](CC(C)C)C(=O)O)C(C)C)[C@@H](C)CC)C(C)C)[C@@H](C)O` [WIQPKTKVIPYVRAL] showed an MIC [11] of 19.5 µM (≈ 35.4 µg/mL) and an MIC [12] of no less than 78.1 µM.
